# According to patent publication US20230346827A1 (priority 2020, published 2023):
# Test system: rats subjected to sTBI
# Experiment: sTBI rats, LMW-DS 1, 5, 15 mg/kg s.c. 30 min post-TBI: HPLC of brain free amino acids (Example 4)
# Format: in vivo, rat
# [1] = 15 mg/kg repeated, 7 d post-sTBI
substance,measurement,setting,value
sodium salt of dextran sulfate [LMW-DS],ALA,"1 mg/kg, 2 d post-sTBI",0.76 ± 0.08 nmol/g w.w.
same,ARG,"1 mg/kg, 2 d post-sTBI",0.13 ± 0.03 nmol/g w.w.
same,ASN,"1 mg/kg, 2 d post-sTBI",0.13 ± 0.02 nmol/g w.w.
same,ASP,"1 mg/kg, 2 d post-sTBI",4.17 ± 0.99 nmol/g w.w.
same,CITR,"1 mg/kg, 2 d post-sTBI",0.01 ± 0.01 nmol/g w.w.
same,GABA,"1 mg/kg, 2 d post-sTBI",1.87 ± 0.17 µmol/g w.w.
same,GLN,"1 mg/kg, 2 d post-sTBI",4.37 ± 0.59 nmol/g w.w.
same,GLU,"1 mg/kg, 2 d post-sTBI",12.52 ± 0.91 nmol/g w.w.
same,GLY,"1 mg/kg, 2 d post-sTBI",1.35 ± 0.26 nmol/g w.w.
same,HYS,"1 mg/kg, 2 d post-sTBI",0.08 ± 0.01 nmol/g w.w.
same,ILE,"1 mg/kg, 2 d post-sTBI",0.10 ± 0.02 nmol/g w.w.
same,L-Cystat,"1 mg/kg, 2 d post-sTBI",0.25 ± 0.05 nmol/g w.w.
same,LEU,"1 mg/kg, 2 d post-sTBI",0.09 ± 0.02 nmol/g w.w.
same,LYS,"1 mg/kg, 2 d post-sTBI",0.29 ± 0.11 nmol/g w.w.
same,MET,"1 mg/kg, 2 d post-sTBI",0.04 ± 0.01 nmol/g w.w.
same,ORN,"1 mg/kg, 2 d post-sTBI",0.02 ± 0.01 nmol/g w.w.
same,PHE,"1 mg/kg, 2 d post-sTBI",0.07 ± 0.03 nmol/g w.w.
same,SAH,"1 mg/kg, 2 d post-sTBI",0.07 ± 0.02 nmol/g w.w.
same,SER,"1 mg/kg, 2 d post-sTBI",0.91 ± 0.07 nmol/g w.w.
same,TAU,"1 mg/kg, 2 d post-sTBI",4.98 ± 0.47 nmol/g w.w.
same,THR,"1 mg/kg, 2 d post-sTBI",0.70 ± 0.15 nmol/g w.w.
same,TRP,"1 mg/kg, 2 d post-sTBI",0.02 ± 0.01 nmol/g w.w.
same,TYR,"1 mg/kg, 2 d post-sTBI",0.18 ± 0.03 nmol/g w.w.
same,VAL,"1 mg/kg, 2 d post-sTBI",0.07 ± 0.03 nmol/g w.w.
same,ALA,"1 mg/kg, 7 d post-sTBI",0.57 ± 0.06 nmol/g w.w.
same,ARG,"1 mg/kg, 7 d post-sTBI",0.13 ± 0.02 nmol/g w.w.
same,ASN,"1 mg/kg, 7 d post-sTBI",0.10 ± 0.02 nmol/g w.w.
same,ASP,"1 mg/kg, 7 d post-sTBI",4.17 ± 0.67 nmol/g w.w.
same,CITR,"1 mg/kg, 7 d post-sTBI",0.03 ± 0.01 nmol/g w.w.
same,GABA,"1 mg/kg, 7 d post-sTBI",1.73 ± 0.18 µmol/g w.w.
same,GLN,"1 mg/kg, 7 d post-sTBI",4.10 ± 0.42 nmol/g w.w.
same,GLU,"1 mg/kg, 7 d post-sTBI",12.14 ± 1.02 nmol/g w.w.
same,GLY,"1 mg/kg, 7 d post-sTBI",0.98 ± 0.20 nmol/g w.w.
same,L-Cystat,"1 mg/kg, 7 d post-sTBI",0.24 ± 0.04 nmol/g w.w.
same,MET,"1 mg/kg, 7 d post-sTBI",0.03 ± 0.01 nmol/g w.w.
same,ORN,"1 mg/kg, 7 d post-sTBI",0.01 ± 0.01 nmol/g w.w.
same,SAH,"1 mg/kg, 7 d post-sTBI",0.04 ± 0.01 nmol/g w.w.
same,SER,"1 mg/kg, 7 d post-sTBI",0.92 ± 0.16 nmol/g w.w.
same,THR,"1 mg/kg, 7 d post-sTBI",0.71 ± 0.12 nmol/g w.w.
same,ALA,"5 mg/kg, 2 d post-sTBI",0.79 ± 0.08 nmol/g w.w.
same,ARG,"5 mg/kg, 2 d post-sTBI",0.13 ± 0.03 nmol/g w.w.
same,ASN,"5 mg/kg, 2 d post-sTBI",0.17 ± 0.03 nmol/g w.w.
same,ASP,"5 mg/kg, 2 d post-sTBI",4.15 ± 0.95 nmol/g w.w.
same,CITR,"5 mg/kg, 2 d post-sTBI",0.02 ± 0.01 nmol/g w.w.
same,GABA,"5 mg/kg, 2 d post-sTBI",1.99 ± 0.18 µmol/g w.w.
same,GLN,"5 mg/kg, 2 d post-sTBI",4.55 ± 0.44 nmol/g w.w.
same,GLU,"5 mg/kg, 2 d post-sTBI",11.93 ± 0.55 nmol/g w.w.
same,GLY,"5 mg/kg, 2 d post-sTBI",1.43 ± 0.28 nmol/g w.w.
same,HYS,"5 mg/kg, 2 d post-sTBI",0.11 ± 0.02 nmol/g w.w.
same,ILE,"5 mg/kg, 2 d post-sTBI",0.10 ± 0.02 nmol/g w.w.
same,L-Cystat,"5 mg/kg, 2 d post-sTBI",0.31 ± 0.06 nmol/g w.w.
same,LEU,"5 mg/kg, 2 d post-sTBI",0.10 ± 0.02 nmol/g w.w.
same,LYS,"5 mg/kg, 2 d post-sTBI",0.37 ± 0.14 nmol/g w.w.
same,MET,"5 mg/kg, 2 d post-sTBI",0.05 ± 0.01 nmol/g w.w.
same,ORN,"5 mg/kg, 2 d post-sTBI",0.01 ± 0.01 nmol/g w.w.
same,PHE,"5 mg/kg, 2 d post-sTBI",0.07 ± 0.03 nmol/g w.w.
same,SAH,"5 mg/kg, 2 d post-sTBI",0.07 ± 0.02 nmol/g w.w.
same,SER,"5 mg/kg, 2 d post-sTBI",0.91 ± 0.07 nmol/g w.w.
same,TAU,"5 mg/kg, 2 d post-sTBI",5.15 ± 0.49 nmol/g w.w.
same,THR,"5 mg/kg, 2 d post-sTBI",0.77 ± 0.17 nmol/g w.w.
same,TRP,"5 mg/kg, 2 d post-sTBI",0.03 ± 0.01 nmol/g w.w.
same,TYR,"5 mg/kg, 2 d post-sTBI",0.20 ± 0.03 nmol/g w.w.
same,VAL,"5 mg/kg, 2 d post-sTBI",0.08 ± 0.03 nmol/g w.w.
same,ALA,"5 mg/kg, 7 d post-sTBI",0.44 ± 0.05 nmol/g w.w.
same,ARG,"5 mg/kg, 7 d post-sTBI",0.15 ± 0.02 nmol/g w.w.
same,ASN,"5 mg/kg, 7 d post-sTBI",0.10 ± 0.02 nmol/g w.w.
same,ASP,"5 mg/kg, 7 d post-sTBI",3.63 ± 0.59 nmol/g w.w.
same,CITR,"5 mg/kg, 7 d post-sTBI",0.03 ± 0.01 nmol/g w.w.
same,GABA,"5 mg/kg, 7 d post-sTBI",1.63 ± 0.17 µmol/g w.w.
same,GLN,"5 mg/kg, 7 d post-sTBI",3.86 ± 0.40 nmol/g w.w.
same,GLU,"5 mg/kg, 7 d post-sTBI",11.82 ± 0.99 nmol/g w.w.
same,GLY,"5 mg/kg, 7 d post-sTBI",0.88 ± 0.15 nmol/g w.w.
same,L-Cystat,"5 mg/kg, 7 d post-sTBI",0.26 ± 0.04 nmol/g w.w.
same,MET,"5 mg/kg, 7 d post-sTBI",0.04 ± 0.01 nmol/g w.w.
same,ORN,"5 mg/kg, 7 d post-sTBI",0.01 ± 0.01 nmol/g w.w.
same,SAH,"5 mg/kg, 7 d post-sTBI",0.04 ± 0.01 nmol/g w.w.
same,SER,"5 mg/kg, 7 d post-sTBI",0.83 ± 0.14 nmol/g w.w.
same,THR,"5 mg/kg, 7 d post-sTBI",0.71 ± 0.15 nmol/g w.w.
same,ALA,[1],0.47 ± 0.05 nmol/g w.w.
same,ARG,[1],0.19 ± 0.02 nmol/g w.w.
same,ASN,[1],0.10 ± 0.02 nmol/g w.w.
same,ASP,[1],2.42 ± 0.39 nmol/g w.w.
same,CITR,[1],0.03 ± 0.01 nmol/g w.w.
same,GABA,[1],1.38 ± 0.14 µmol/g w.w.
